Assay results reported in the CheMixHub ionic liquid set.
± gives the uncertainty stated by the source.

Test: xn = mol fraction of the nth substance listed
Conditions: 298.15 K, 101 kPa

Cc1ncc(C[n+]2csc(CCO)c2C)c(N)n1.Cl.[Cl-] + CCCCCCCCCCCCOS(=O)(=O)[O-].[Na+] + O
Conditions | electrical conductivity [S/m]
x2 = 0, x1 = 1.8e-07 | 0.00291 ± 0.0006
x2 = 0, x1 = 9e-07 | 0.00489 ± 0.00061
x2 = 0, x1 = 1.8e-06 | 0.00788 ± 0.00063
x2 = 7.35e-06, x1 = 1.8e-07 | 0.00635 ± 0.0006
x2 = 7.35e-06, x1 = 9e-07 | 0.00839 ± 0.00062
x2 = 7.35e-06, x1 = 1.8e-06 | 0.0119 ± 0.00066
x2 = 1.463e-05, x1 = 1.8e-07 | 0.0099 ± 0.00062
x2 = 1.463e-05, x1 = 9e-07 | 0.0118 ± 0.00063
x2 = 1.463e-05, x1 = 1.8e-06 | 0.0158 ± 0.00068
x2 = 2.18e-05, x1 = 1.8e-07 | 0.0131 ± 0.00063
x2 = 2.18e-05, x1 = 9e-07 | 0.0152 ± 0.00065
x2 = 2.18e-05, x1 = 1.8e-06 | 0.0196 ± 0.00072
x2 = 2.901e-05, x1 = 1.8e-07 | 0.0163 ± 0.00066
x2 = 2.901e-05, x1 = 9e-07 | 0.0186 ± 0.00068
x2 = 2.901e-05, x1 = 1.8e-06 | 0.0233 ± 0.00076
x2 = 3.604e-05, x1 = 1.8e-07 | 0.0196 ± 0.00069
x2 = 3.604e-05, x1 = 9e-07 | 0.0219 ± 0.00071
x2 = 3.604e-05, x1 = 1.8e-06 | 0.027 ± 0.00081
x2 = 4.307e-05, x1 = 1.8e-07 | 0.0228 ± 0.00072
x2 = 4.307e-05, x1 = 9e-07 | 0.0251 ± 0.00074
x2 = 4.307e-05, x1 = 1.8e-06 | 0.0308 ± 0.00087
x2 = 4.991e-05, x1 = 1.8e-07 | 0.026 ± 0.00076
x2 = 4.991e-05, x1 = 9e-07 | 0.0282 ± 0.00077
x2 = 4.991e-05, x1 = 1.8e-06 | 0.0347 ± 0.00094
x2 = 5.676e-05, x1 = 1.8e-07 | 0.0292 ± 0.0008
x2 = 5.676e-05, x1 = 9e-07 | 0.0312 ± 0.00081
x2 = 5.676e-05, x1 = 1.8e-06 | 0.0384 ± 0.001
x2 = 6.361e-05, x1 = 1.8e-07 | 0.0323 ± 0.00084
x2 = 6.361e-05, x1 = 9e-07 | 0.0342 ± 0.00086
x2 = 6.361e-05, x1 = 1.8e-06 | 0.0421 ± 0.0011
x2 = 7.027e-05, x1 = 1.8e-07 | 0.0354 ± 0.00088
x2 = 7.027e-05, x1 = 9e-07 | 0.0372 ± 0.0009
x2 = 7.028e-05, x1 = 1.8e-06 | 0.0457 ± 0.0011
x2 = 7.694e-05, x1 = 1.8e-07 | 0.0385 ± 0.00091
x2 = 7.694e-05, x1 = 9e-07 | 0.0402 ± 0.00094
x2 = 7.694e-05, x1 = 1.8e-06 | 0.0492 ± 0.0012
x2 = 8.361e-05, x1 = 1.8e-07 | 0.0414 ± 0.00094
x2 = 8.361e-05, x1 = 9e-07 | 0.0431 ± 0.00099
x2 = 8.361e-05, x1 = 1.8e-06 | 0.0526 ± 0.0012
x2 = 9.009e-05, x1 = 1.8e-07 | 0.0443 ± 0.00098
x2 = 9.009e-05, x1 = 9e-07 | 0.046 ± 0.001
x2 = 9.009e-05, x1 = 1.8e-06 | 0.0557 ± 0.0012
x2 = 9.658e-05, x1 = 1.8e-07 | 0.0471 ± 0.001
x2 = 9.658e-05, x1 = 9e-07 | 0.0489 ± 0.0011
x2 = 9.658e-05, x1 = 1.8e-06 | 0.0587 ± 0.0013
x2 = 0.0001031, x1 = 1.8e-07 | 0.0498 ± 0.001
x2 = 0.0001031, x1 = 9e-07 | 0.0518 ± 0.0011
x2 = 0.0001031, x1 = 1.8e-06 | 0.0616 ± 0.0013
x2 = 0.0001094, x1 = 1.8e-07 | 0.0524 ± 0.0011
x2 = 0.0001094, x1 = 9e-07 | 0.0545 ± 0.0011
x2 = 0.0001094, x1 = 1.8e-06 | 0.0643 ± 0.0013
x2 = 0.0001157, x1 = 1.8e-07 | 0.0549 ± 0.0011
x2 = 0.0001157, x1 = 9e-07 | 0.0571 ± 0.0011
x2 = 0.0001157, x1 = 1.8e-06 | 0.0668 ± 0.0013
x2 = 0.000122, x1 = 1.8e-07 | 0.0574 ± 0.0011
x2 = 0.000122, x1 = 9e-07 | 0.0595 ± 0.0011
x2 = 0.000122, x1 = 1.8e-06 | 0.0691 ± 0.0013
x2 = 0.0001281, x1 = 1.8e-07 | 0.0597 ± 0.0011
x2 = 0.0001281, x1 = 9e-07 | 0.0615 ± 0.0011
x2 = 0.0001281, x1 = 1.8e-06 | 0.0712 ± 0.0013
